Reference: ChEMBL document CHEMBL1153832, “Identification and characterization of UK-201844, a novel inhibitor that interferes with human immunodeficiency virus type 1 gp160 processing” (Antimicrob Agents Chemother, 2007)

Legend:
[1] = test system: Human immunodeficiency virus 1; assay: Antiviral activity against HIV1 bearing HIV1 NL4-3 envelope infected in human HeLa CD4 cells coexpressing LTR/beta-Gal gene assessed as reduction in virus-induced beta-galactosidase reporter gene activity after 72 hrs by single-cycle infection assay; assay type: functional, organism-based; conditions: Human immunodeficiency virus 1, HeLa
[2] = test system: Human immunodeficiency virus 1; assay: Antiviral activity against HIV1 bearing VSV envelope infected in human HeLa CD4 cells coexpressing LTR/beta-Gal gene assessed as reduction in virus-induced beta-galactosidase reporter gene activity after 72 hrs by single-cycle infection assay; assay type: functional, organism-based; conditions: Human immunodeficiency virus 1, HeLa

O=C(O)C1=CC(=C(c2ccc(O)c(C(=O)O)c2)c2ccc(O)c(C(=O)O)c2)C=CC1=O [AURINTRICARBOXYLIC ACID]
EC50 [1]: 0.076 µM | EC50 [2]: > 76 µM
